Columns and labels:
[1] = molecular target: ROCK2 (Homo sapiens, UniProt O75116); assay: ROCK2 kinase inhibitor activity test (HTRF); format: biochemical; settings: ROCK2 1 nM, substrate 500 nM, ATP 6 uM, 1.5 hours at room temperature, read-out: ROCK2 kinase inhibitor activities (IC50)
Protocol: ROCK2 Kinase Inhibitor Activity Test
1) 4× ROCK2 reaction solution, 4×ATP reaction solution, 4× substrate solution, and 4× compound solution were prepared according to experimental requirements.
2) 2.5 μL of 4× kinase solution and 2.5 μL of diluted 4× test compound solutions with different concentration gradients were added to a 384-well plate. 2 replicate wells were provided for each concentration, and an enzyme solution blank control group and a negative control group (DMSO group) were provided at the same time. Centrifugation was performed at 1000 rpm for 1 minute, and the enzyme and the compounds were mixed. 2.5 μL of 4× substrate solution was added to the 384-well plate, centrifugation was performed at 1000 rpm for 1 minute, 2.5 μL of 4× ATP solution was added to the 384-well plate, centrifugation was performed at 1000 rpm for 1 minute to start the enzyme reaction, and incubation was performed at room temperature for 1.5 hours.
The final concentration of each component of the ROCK2 reaction was: ROCK2: 1 nM, substrate: 500 nM, ATP: 6 uM, and the final concentration range of the test compounds was: 100 nM to 5 pM.
3) 4× Streptavidin-XL-665 detection solution was prepared according to experimental requirements.
4) After the enzyme reaction was completed, 5 ul of 4× Streptavidin-XL-665 detection solution was added to each well of the 384-well plate, and centrifugation was performed at 1000 rpm for 1 minute. 5 μL of 4×STK Antibody-cryptate detection antibody solution was added to each well of the 384-well plate, centrifugation was performed at 1000 rpm for 1 minute, and incubation was performed for 1 hour at room temperature.
5) After antibody incubation was completed, the signal value of each well was measured by the HTRF program on an Envision plate reader.
1) Taking the enzyme solution blank control group as 100% inhibition rate and the negative control group (DMSO group) as 0% inhibition rate, the percentage inhibition rate corresponding to each concentration of the test compound was calculated.
2) In the GraphPad Prism software, a nonlinear regression analysis was performed on the logarithm of the concentrations of the test compounds and the corresponding percentage inhibition rates to obtain the half-inhibitory concentrations (IC50) of the test compounds.
The ROCK2 kinase inhibitor activities (IC50) of the compounds detected by this method are as follows: […]

[2] = system: Phospho-Myosin Light Chain2 (Ser19); assay: Cell activity test: MLC2 (Ser19) phosphorylation in A7R5 cells (Western blot); format: cell-based; settings: starved 20 hours, compound treatment 60 minutes, MLC2 (Ser19) phosphorylation corrected with GAPDH, read-out: cell activities (IC50)
Protocol: Example 43: Cell Activity Test
1) The A7R5 cells in the logarithmic growth phase were digested, 2E5 cells per well were inoculated in a 6-well plate and incubated overnight at 37° C. with 5% CO2, and the cell culture medium was replaced with a starvation medium containing 0.05% FBS after 24 hours. The cells were starved for 20 hours.
2) The starvation medium was removed, the cells were treated with the prepared compound concentration gradient for 60 minutes, VIP-5021 (10 uM) was set as the positive control, and the DMSO group was set as the negative control.
3) After the compound treatment, the compound solutions were aspirated, washed with PBS two times, 100 ul of cell lysate was added to each well, the cells were gently scraped with a cell scraper, and the cells were transferred to a centrifuge tube and lysed on ice for 60 minutes.
4) After the lysis, centrifugation was performed at 4° C. and 14000 rpm for 15 minutes, the lysate supernatant was collected, protein quantification was performed using the BCA method, the protein concentration was adjusted, the loading buffer was added according to proportion, and treatment was performed at 100° C. for 10 minutes to denature the protein.
5) An electrophoresis equipment was assembled, 20 ug of total protein was loaded per sample, the voltage was fixed at 125 V, and electrophoresis was performed for 90 minutes. After the electrophoresis was completed, the membrane transfer system was assembled with a fixed current of 300 mA and the membrane was transferred for 120 minutes. After the membrane transfer was completed, the PVDF membrane was removed and washed with PBS two times. A blocking solution was added to block at room temperature for 60 minutes. The blocking solution was removed, a solution containing the primary antibody (Phospho-Myosin Light Chain2 (Ser19)) (antibody dilution ratio 1:1000) was added, GAPDH was selected as internal control, and incubation was performed overnight at 4° C.
6) Washing was performed with PBST three times, HRP-antibody containing the corresponding species (secondary antibody dilution ratio 1:2000) was added, incubation was performed at room temperature for 60 minutes, and washing was performed with PBST three times. HRP chemiluminescence substrate was prepared, and dropwisely added on the PVDF membrane based on 0.1 mL per square centimeter to react for 30 seconds, and the chemiluminescence signal was collected with a gel imager (ChemiDoc XRS+(BIO-RAD)).
7) Each band was quantitatively analyzed using image J software, and the phosphorylated protein level of Phospho-Myosin Light Chain2 (Ser19) in each sample was corrected using GAPDH expression as internal reference.
1) Taking the MLC2 (Ser19) protein phosphorylation level of the highest concentration compound sample as 100% inhibition rate, and taking the MLC2 (Ser19) protein phosphorylation level of the negative control group (DMSO group) as 0% inhibition rate, the percentage inhibition rate corresponding to each concentration of the test compounds was calculated.
2) In the GraphPad Prism software, a nonlinear regression analysis was performed on the logarithm of the concentrations of the test compounds and the corresponding percentage inhibition rates to obtain the half-inhibitory concentrations (IC50) of the cell levels of the test compounds.
The cell activities (IC50) of the compounds detected by this method are as follows: […]

ROCK2, sequence (O75116 whole entry): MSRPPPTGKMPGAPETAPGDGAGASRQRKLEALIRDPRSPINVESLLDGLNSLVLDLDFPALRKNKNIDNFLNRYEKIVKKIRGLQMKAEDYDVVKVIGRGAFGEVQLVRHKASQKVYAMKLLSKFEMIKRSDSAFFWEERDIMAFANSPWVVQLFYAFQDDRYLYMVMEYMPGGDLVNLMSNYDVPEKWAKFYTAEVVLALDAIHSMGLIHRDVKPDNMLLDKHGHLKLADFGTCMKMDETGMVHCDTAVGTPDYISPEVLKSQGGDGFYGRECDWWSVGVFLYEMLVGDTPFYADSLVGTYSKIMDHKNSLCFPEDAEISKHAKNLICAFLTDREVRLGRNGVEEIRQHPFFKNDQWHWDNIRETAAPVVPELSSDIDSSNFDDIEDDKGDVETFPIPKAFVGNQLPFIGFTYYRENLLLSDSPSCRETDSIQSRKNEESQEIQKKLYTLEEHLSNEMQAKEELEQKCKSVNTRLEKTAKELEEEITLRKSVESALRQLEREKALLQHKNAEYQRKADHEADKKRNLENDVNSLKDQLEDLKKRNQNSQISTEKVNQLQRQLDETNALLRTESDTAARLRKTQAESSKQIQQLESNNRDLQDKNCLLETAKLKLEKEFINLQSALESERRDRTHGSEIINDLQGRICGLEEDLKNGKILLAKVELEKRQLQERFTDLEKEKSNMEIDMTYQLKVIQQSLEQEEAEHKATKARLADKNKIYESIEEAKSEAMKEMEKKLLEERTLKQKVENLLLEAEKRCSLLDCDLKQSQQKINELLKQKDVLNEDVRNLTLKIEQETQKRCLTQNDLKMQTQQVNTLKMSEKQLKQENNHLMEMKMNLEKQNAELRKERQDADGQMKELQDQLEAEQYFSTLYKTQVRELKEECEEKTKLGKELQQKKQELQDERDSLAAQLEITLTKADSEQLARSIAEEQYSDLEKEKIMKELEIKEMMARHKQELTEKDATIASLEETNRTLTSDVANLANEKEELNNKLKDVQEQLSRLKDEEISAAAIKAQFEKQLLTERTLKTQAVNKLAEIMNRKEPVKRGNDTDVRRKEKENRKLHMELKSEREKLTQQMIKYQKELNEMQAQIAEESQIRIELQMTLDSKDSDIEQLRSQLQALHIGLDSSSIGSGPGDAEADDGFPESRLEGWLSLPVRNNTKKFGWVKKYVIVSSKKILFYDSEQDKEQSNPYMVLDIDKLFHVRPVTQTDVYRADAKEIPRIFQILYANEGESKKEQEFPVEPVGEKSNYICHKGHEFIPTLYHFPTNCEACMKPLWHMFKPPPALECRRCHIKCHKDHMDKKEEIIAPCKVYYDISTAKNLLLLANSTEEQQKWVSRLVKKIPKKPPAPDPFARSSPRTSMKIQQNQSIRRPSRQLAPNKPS

Compound | IC50 [1] | IC50 [2]
NC[C@@H](C(=O)Nc1cc2ccncc2s1)c1ccc(CO[N+](=O)[O-])cc1 [Example 1, (S)-4-(3-amino-1-oxo-1-(thieno[2,3-c]pyridin-2-ylamino)prop-2-yl)benzyl nitrate] | 0.5 nM | 53 nM
NCC(C(=O)Nc1cc2ccncc2s1)c1ccc(OCC(CO[N+](=O)[O-])O[N+](=O)[O-])cc1 (stereo not shown) [Example 7, 3-(4-(3-amino-1-oxo-1-(thieno[2,3-c]pyridin-2-ylamino)prop-2-yl)phenoxy)propane-1,2-dinitrate] | 2.19 nM | 8.8 nM
NCC(C(=O)Nc1cc2ccncc2s1)c1ccc(CCCO[N+](=O)[O-])cc1 (stereo not shown) [Example 8, 3-(4-(3-amino-1-oxo-1-thieno[2,3-c]pyridin-2-ylamino)prop-2-yl)phenyl)propyl nitrate] | 5.9 nM | 35.8 nM
NC[C@@H](C(=O)Nc1cc2ccncc2s1)c1ccc(COC(=O)CCCCO[N+](=O)[O-])cc1 [Example 9, (S)-4-(3-amino-1-oxo-1-(thieno[2,3-c]pyridin-2-ylamino)prop-2-yl)benzyl 5-(nitrooxy)valerate] | 1.02 nM | 30.3 nM
NC[C@@H](C(=O)Nc1cc2ccncc2s1)c1ccc(CCO[N+](=O)[O-])cc1 [Example 11, (S)-4-(3-amino-1-oxo-1-(thieno[2,3-c]pyridin-2-ylamino)propan-2-yl)phenethyl nitrate] | 6.01 nM | 21.4 nM
NC[C@@H](C(=O)Nc1cc2ccncc2s1)c1ccc(COC(=O)OCCCCO[N+](=O)[O-])cc1 [Example 13, (S)-4-(3-amino-1-oxo-1-(thieno[2,3-c]pyridin-2-ylamino)prop-2-yl)benzyl(4-(nitrooxy)butyl)carbonate] | 1.51 nM | 39.5 nM
NC[C@@H](C(=O)Nc1cc2ccncc2s1)c1ccc(COC(=O)C2C[C@@H](O[N+](=O)[O-])[C@H](O[N+](=O)[O-])C2)cc1 [Example 37, (3R,4R)-4-((S)-3-amino-1-oxy-1-(thieno[2,3-c]pyridin-2-ylamino)propan-2-yl)benzyl 3,4-bis(nitrooxy)cyclopentane carboxylate] | 1.43 nM | 
NC[C@@H](C(=O)Nc1cc2ccncc2s1)c1ccc(COC(=O)C2CCC(CO[N+](=O)[O-])CC2)cc1 (stereo partly drawn) [Example 38, (1r,4S)-4-((S)-3-amino-1-oxy-1-(thieno[2,3-c]pyridin-2-ylamino)propan-2-yl)benzyl 4-((nitrooxy)methyl)cyclohexanecarboxylic acid] | 19.7 nM | 
NC[C@@H](C(=O)Nc1cc2ccncc2s1)c1ccc(COC(=O)[C@@H]2CCCN2CCO[N+](=O)[O-])cc1 [Example 39] | 29.2 nM | 
CN(C)C[C@@H](C(=O)Nc1cc2ccncc2s1)c1ccc(COC(=O)C(C)(CO[N+](=O)[O-])CO[N+](=O)[O-])cc1 [Example 40, (S)-4-(3-(dimethylamino)-1-oxo-1-(thieno[2,3-c]pyridin-2-ylamino)propan-2-yl)benzyl 2-methyl-3-(nitrooxy)-2-((nitrooxy)methyl)propionate] | 2.05 nM | 

— patent US20220332726A1, “NITROXIDE DERIVATIVE OF ROCK KINASE INHIBITOR” (VIVAVISION (SHANGHAI) LTD, priority 2020, published 2022)
